Experimental data: patent US20220274987A1, “PYRAZINO [1,2-B]QUINAZOLINE-3,6-DIONES DERIVATIVES, THEIR PRODUCTION AND USES THEREOF” (CIIMAR -CENTRO INTERDISCIPLINAR DE INVESTIGAÇÃO MARINHA E …, priority 2019, published 2022)
Converted amounts (≈) assume the structure as drawn. Like-named read-outs stand apart in the source and are kept apart here.

Columns and labels:
[1] = tested on: Plasmodium falciparum 3D7 strain; experiment: In vitro susceptibility assay of P. falciparum, SYBR Green I; format: cell-based; conditions: for antimalarial activity (in words): P. falciparum 3D7; for IC50: Plasmodium falciparum
Description: The principle of the in vitro susceptibility test to malaria is to assess the degree of development of parasites P. falciparum in the presence of different concentrations of the compounds.
In the present disclosure, the antimalarial activity was also evaluated. Each compound was lyophilized and solubilized in DMSO (Sigma-Aldrich) to obtain a final concentration of 5 mM. Some intermediate dilutions were made to achieve the final concentration of 10 μM in the first well of the plate.
In an embodiment, the culture of P. falciparum was carried out as follows. […] Parasites were cultivated at 5% hematocrit, 37° C. and atmosphere with 5% of CO2, human serum was replaced with 0.5% AlbuMAXII (Invitrogen™) in the culture medium. Synchronized cultures were obtained by treatments with a 5% (m/v) solution of D-sorbitol (Sigma-Aldrich).
In the present disclosure, the in vitro susceptibility assay of P. falciparum using SYBR Green I was carried out as follows. […] Briefly, early ring stage parasites (>80% of rings, 3% haematocrit and 1% parasitaemia) were tested in duplicate in a 96-well plate and incubated with the compounds for 48 h (37° C., 5% CO2), parasite growth was assessed with SYBR Green I (Thermo Fisher Scientific). Each compound was tested in concentrations ranging from 10 to 0.001 μM. Fluorescence intensity was measured with a microplate reader with excitation and emission wavelengths of 485 and 535 nm, respectively, and analysed by nonlinear regression using GraphPad Prism 5 demo version to determine

[2] = tested on: healthy/non-parasitized erythrocytes; experiment: Hemotoxicity in vitro (hemolysis assay); format: cell-based, human; conditions: at ≤10 μM
Description: In an embodiment, the evaluation of hemotoxicity in vitro was performed as follows. The in vitro hemolysis assay evaluates the release of hemoglobin in the medium (as an indicator of lysis of erythrocytes) after exposure to the test compounds.
In the present disclosure, the evaluation of hemotoxicity in vitro was performed as follows. In a 96-flat bottom plate 3% HTC, 20 μL of 20% Triton X-100, and 20 μL of PBS or RPMIc in 2% DMSO was added. Compounds were tested in a 1:4 serial dilution in concentrations ranging from 10 μM to 0.04 μM. After the incubation of 60 minutes, the plate was centrifuged at 2000 rpm for 5 minutes. 100 mL of Supernatant was transferred to a flat bottom plate. The absorbance reading was made at 450 nm in a Mode (Triad, Dynex Technologies). Two independent tests were carried out in triplicate. The results are presented in the form of a percentage of hemolysis-% hemolysis, obtained by the following formula; % Hemolysis=ABS (sample)/abs (C+)×100. Whereas C+ is a Triton x-100 to 20% solution RPMIc.

[3] = tested on: hemozoin (β-hematin); experiment: Inhibition of polymerization of hemozoin (β-hematin) in vitro; conditions: 12 and 16 at 48.0, 24.0, 12.0 μM; 31 at 96.0, 48.0, 24.0 μM; 24 h
[4] = tested on: V79 cells; conditions: for DL50: 24 h; for SI (Selectivity Index): calculated by LD50/IC50 (V79 / P. falciparum 3D7)
Description: In the present disclosure, the cytotoxicity in vitro against mammalian cell was carried out as follows. Cytotoxicity was assessed on the mammalian cell line V79 (Chinese hamster lung), using an MTT based assay, as previously described [38B]. Tests were conducted in triplicate for each compound, at a range of concentrations (800 μM to 0.0512 μM), and with culture media containing 0.5% DMSO (no drug control); incubation time 24 h. Absorbance was read at 570 nm on a multi-mode microplate reader to produce a log dose-dependence curve. The LD50 value for each compound was estimated by non-linear interpolation of the dose-dependence curve (GraphPad Software).

[5] = tested on: Staphylococcus aureus ATCC 29213; experiment: MIC/MBC broth dilution (CLSI), S. aureus reference strain; format: cell-based; conditions: S. aureus ATCC 29213
Source text: (§1) In the present disclosure, two Gram-positive—Staphylococcus aureus ATCC 29213 and Enterococcus faecalis ATCC […] and two Gram-negative—Escherichia coli ATCC 25922 and Pseudomonas aeruginosa ATCC 27853—reference bacterial strains were used. When it was possible to determine a minimal inhibitory concentration (MIC) value for these strains, clinically relevant strains were also used. These included methicillin-resistant S. uareus (MRSA) 66/1, isolated from public buses, as well as a isolate sensitive to the most commonly used antibiotic families (S. aureus 40/61/24) and two vancomycin-resistant Enterococcus (VRE) strains isolated from river water, E. faecalis B3/101 and E. faecalis A5/102, which is sensitive to ampicillin. Frozen stocks of all strains were grown on Mueller-Hinton agar (MH-BioKar Diagnostics, Allone, France) at 37° C. for 24 h. All bacterial strains were sub-cultured on MH agar and incubated overnight at 37° C. before each assay, in order to obtain fresh cultures.
(§2) An initial screening of the antibacterial activity of the compounds was performed by the Kirby-Bauer disk diffusion method, as recommended by the Clinical and Laboratory Standards institute (CLSI). Briefly, sterile 6 mm blank paper disks (Oxoid, Basingstoke, England) impregnated with 15 μg of each compound were placed on inoculated MH agar plates. A blank disk with DMSO was used as a negative control. MH inoculated plates were incubated for 18-20 hours at 37° C. At the end of the incubation, the inhibition halos where measured. The minimal inhibitory concentration (MIC) was used to determine the antibacterial activity of each compound, in accordance with the recommendations of the CLSI. Two-fold serial dilutions of the compounds were prepared in Mueller-Hinton Broth 2 (MHB2-Sigma-Aldrich, St. Louis, Mo., USA) within the concentration range of 0.062-64 μg/mL. Cefotaxime (CTX) ranging between 0.031-16 μg/mL was used as a control. Sterility and growth controls were included in each assay. Purity check and colony counts of the inoculum suspensions were also performed in order to ensure that the final inoculum density closely approximates the intended number ([…]). The MIC was determined as the lowest concentration at which no visible growth was observed. The minimal bactericidal concentration (MBC) was assessed by spreading 10 μL of culture collected from wells showing no visible growth on MH agar plates. The MBC was determined as the lowest concentration at which no colonies grew after 16-18 hours incubation at 37° C. These assays were performed in duplicate.

[6] = tested on: S. aureus 66/1 (MRSA); experiment: MIC/MBC broth dilution (CLSI), MRSA; format: cell-based; conditions: Staphylococcus aureus
Source text: as §1, §2

[7] = tested on: E. faecalis ATCC 29212; experiment: MIC/MBC broth dilution (CLSI), E. faecalis reference strain; format: cell-based, Enterococcus faecalis; conditions: Enterococcus faecalis
Source text: as §1, §2

[8] = tested on: S. aureus 40/61/24; experiment: MIC/MBC broth dilution (CLSI), sensitive clinical isolate; format: cell-based; conditions: Staphylococcus aureus
Source text: as §1, §2

[9] = tested on: hemozoin; conditions: trophozoite stage; cited from earlier work
[10] = tested on: P. falciparum 3D7 strain; conditions: cited from earlier work
[11] = tested on: Staphylococcus aureus; conditions: cited from earlier work
[12] = tested on: Enterococcus faecalis; conditions: cited from earlier work
[13] = tested on: Vibrio harvevi; conditions: cited from earlier work
[14] = P. falciparum (3D7), 48 h, read-out: IC50

Which results are given for `CC(C)[C@@H]1NC(=O)[C@@H](Cc2c[nH]c3ccccc23)n2c1nc1ccccc1c2=O` [Compound 12, fiscalin B]?
antimalarial activity (in words) [1]: highest antimalarial activity; IC50 [1, 14]: 100 ± 20 nM; hemolytic activity (in words) [2]: no hemolytic activity; inhibition of the polymerization of β-hematin in vitro (in words) [3]: did not show to inhibit; DL50 ([4]; Chinese hamster): 1.91 ± 0.44 µM; SI (Selectivity Index) [4]: 19

Which “antimalarial activity (in words)” value [1] does the source give for `CC(C)C[C@@H]1NC(=O)[C@@H](Cc2c[nH]c3ccccc23)n2c1nc1ccccc1c2=O` [Compound 16] here?
Its value is “highest antimalarial activity”.

What about the IC50 [1, 14] of the same molecule?
Its IC50 is 50 ± 20 nM.

And the “hemolytic activity (in words)” value [2]?
Its value is “no hemolytic activity”.

And the “inhibition of the polymerization of β-hematin in vitro (in words)” value [3]?
Its value is “did not show to inhibit”.

What about the DL50 ([4]; Chinese hamster) of the same molecule?
The DL50 was 1.78 ± 0.47 µM.

And the “SI (Selectivity Index)” value [4]?
The value was 34.

With `CC(C)C[C@@H]1NC(=O)[C@@H](Cc2c[nH]c3ccccc23)n2c1nc1c(Cl)cc(Cl)cc1c2=O` [Compound 31, (1S, 4R)-4-((1H-indol-3-yl)methyl)-8,10-dichloro-1-isobutyl-1,2-dihydro-6H-pyrazino[2,1-b]quinazoline-3,6(4H)-dione] as the molecule, how does the “antibacterial (inhibitory) effect (in words)” value [5] read?
The value was “inhibitory effect”.

And the MBC ([5]; Staphylococcus aureus, ATCC29213)?
Its MBC is over 64 µg/mL.

And the MIC ([5]; Staphylococcus aureus, ATCC29213, read-out: MIC)?
The MIC was 4 µg/mL (≈ 8.52 µM).

And the “antimalarial activity (in words)” value [1]?
The value was “highest antimalarial activity”.

And the IC50 ([1]; 3D7, 48 h)?
The IC50 was 200 nM.

And the MBC [6]?
Its MBC is over 64 µg/mL.

What about the MIC [6] of the same molecule?
The MIC was 8 µg/mL (≈ 17 µM).

And the “hemolytic activity (in words)” value [2]?
The value was “no hemolytic activity”.

And the MBC ([7]; ATCC29212)?
Its MBC is over 64 µg/mL.

And the MIC ([7]; ATCC29212, read-out: MIC)?
Its MIC is over 64 µg/mL.

And the MIC ([8]; 40/61/24)?
The MIC was 8 µg/mL (≈ 17 µM).

What about the MBC ([8]; S. aureus 40/61/24) of the same molecule?
The MBC was over 64 µg/mL.

What about the “inhibition of the polymerization of β-hematin in vitro (in words)” value [3] of the same molecule?
Its value is “did not show to inhibit”.

What about the DL50 ([4]; Mammalian cells (V79), MTT) of the same molecule?
Its DL50 is 14.00 ± 1.41 µM.

Which “inhibition of the formation of hemozoin (in words)” value [9] does the source give for `O=C(C[C@H]1NCCC[C@@H]1O)Cn1cnc2ccccc2c1=O` [Febrifugine (9, FF), febrifugine] here?
The value was “significantly inhibits”.

For `Clc1ccc2nccc(N3CCC(CN4CCC(c5c[nH]c6ccccc56)CC4)CC3)c2c1` [TCMDC-134281 (8), TCMDC-134281], which EC50 [10] is on record?
The EC50 was 34 nM.

What does the source list for `CC(C)[C@@H]1NC(=O)[C@@H](C[C@]2(O)c3ccccc3N3C(=O)[C@@H](C)N[C@H]32)n2c1nc1ccccc1c2=O` [neofiscalin A (2), neofiscalin A]?
MIC [11]: 8 µg/mL (≈ 16.9 µM); MIC [12]: 8 µg/mL (≈ 16.9 µM)

Which MIC [13] does the source give for glyantypine [glyantypine (1)] here?
The MIC was 32 µg/mL.
